{
  "source": "patent US10251845B2",
  "about": "“Fatty acid cysteamine conjugates and their use as activators of autophagy” (Catabasis Pharmaceuticals, Inc., priority 2014, dated 2019)",
  "key": {"[1]": {"tested_on": "Pseudomona aeruginosa strain Xen05", "test": "In vitro bacterial clearance assay using human bronchial epithelial cells (16HBE)", "format": "cell-based", "conditions": "16HBE cells, 25 μM", "protocol": "In this assay, normal 16HBE cells were cultured and seeded at 2×10^5 cells per well using a 48-well plate. The resulting plates were incubated at 37° C. with 5% CO2 until 90% confluency. Cells were then treated with compound II-3 for 24 hours and then infected with Pseudomona aeruginosa strain Xen05 at a multiplicity of infection (MOI) of 1:50 (i.e. ratio of cells:bacteria) for 2 hours. Cells were then incubated with 500 μL of a mixture consisting non-permeable antibiotic (50 U/mL each of penicillin and streptomycin, mixed with 200 μg/mL gentamicin) for 3 hours to remove the extracellular bacteria. Afterwards, cells were lysed and a bacteria count was carried out to determine the remaining intracellular bacteria load."}, "cell surface CFTR": {"tested_on": "cell surface CFTR", "test": "Cell surface biotinylation in HT-29 cells, anti-CFTR immunoblot", "format": "cell-based", "conditions": "50 μM, 24 hours", "protocol": "The test compound was first solubilized in 100% DMSO as a 50 mM solution, and then diluted 1 to 100 in FBS as a 10× stock solution of 500 μM.\nHT-29 cells were seeded at 2.0×10^6 cells in […] in 10% FBS DMEM overnight. The cell media was replaced with drug diluted 1 to 10 in DMEM (final concentration 50 μm in 10% FBS DMEM). 24 hours after drug addition, the cells were processed for cell surface biotinyaltion using Pierce Cell Surface Protein Isolation Kit (Thermo Scientific 89881). Briefly, cells were washed once with cold PBS and incubated with Sulfo-NHS-SS-Biotin for 30 minutes at 4° C. and reaction was stopped by adding Quenching solution. Cells were scraped and lysed and centrifuged at 10,000×g. Cell suspension were incubated with NeutrAvidin Agarose for 60 minutes at room temperature. Cell pellet (intracellular) were lysed in RIPA buffer. Protein bound to NeutrAvidin Agarose (cell surface) were eluted by SDS-PAGE sample buffer containing 50 mM DTT. Both cell surface and intracellular parts were analyzed by immunoblotting with anti-CFTR antibodies."}, "IL-1β": {"tested_on": "IL-1β", "test": "RT-PCR of IL-1β mRNA in LPS-stimulated THP-1 cells", "format": "cell-based", "conditions": "25 μM, LPS stimulation", "protocol": "THP-1 cells were obtained from ATCC® TIB202. THP-1 cells were maintained in RPMI1640 (Gibco® RPMI 1640) supplemented with 10% fetal bovine serum. DMEM (#11095) and fetal bovine serum (low endotoxin grade) (#10437) was obtained from Invitrogen.\nCompounds II-3 and I-1 were first solubilized in 100% DMSO as 50 mM solution, and then diluted 1 to 200 in 1% BSA as a 10× stock solution of […], and series stock dilution (1 to 2 dilution) were carried out as needed. The 10× stock solution were added to the cell media and cells were incubated for 24 hours at 37° C. For LPS stimulation in THP-1 cells, compounds were added to the cell media for 6 hours at and at the end of 4 hours, 50 μg/ml final concentration of LPS (Sigma L3024) was added and cells were incubated for 2 hours. […] The total RNA was harvested, and the relative mRNA expression levels were assessed via RT-PCR with HPRT as the internal control. […] Significance was determined by student's t-test in comparison to control.\nTotal RNA was collected using RNeasy Plus Mini Kit (Qiagen #74136) and cDNA generated using SuperScriptIII (Invitrogen #18080-044) with random hexamers following the manufacturer's protocol. Relative mRNA expression levels were determined using TaqMan probes (Applied Biosystems, using the recommended best primer pairs) with HPRT (hypoxanthine phosphoryltransferase) as the internal control. […]"}, "LC3-II/LC3-I": {"tested_on": "LC3-II/LC3-I", "test": "In vivo autophagy activation in mouse lung tissues", "conditions": "mice, 100 mg/kg po BID 3.5 days; p=0.04", "protocol": "In order to evaluate for in vivo autophagy activation, nave male C57BL/6 mice were dosed orally with compound II-3 (100 mg/kg, BID, 3.5 days). One hour after the last dose, lung tissues and plasma were collected to analyze for drug concentration and autophagy biomarkers. As discussed in earlier examples, the ratio of LC3-II to LC3-I was used as autophagy biomarker. When compound II-3 was dosed orally, the parent compound (i.e. II-3) and a major metabolite (i.e. compound I-1) was detected both in the plasma and lung tissues. One hour after the last dose, the plasma concentration of the parent compound II-3 was 143.0±52.35 ng/mL and the corresponding metabolite I-1 was 741.37±170.2 ng/mL. At this time point, the mouse lung tissue concentration of the parent compound II-3 was 536.48±24.01 ng/g. The metabolite I-1 was also detected in the lung tissues, at a concentration of 411.48±164.0 ng/g. Compound II-3 was able to induce autophagy at the given dose of 100 mg/kg and the 22% increase in the ratio of LC3-II to LC3-I in the isolated lung tissues was statistically significant (p=0.04, FIG. 12)."}},
  "data": [
    {"molecule": "CC/C=C\\C/C=C\\C/C=C\\C/C=C\\C/C=C\\C/C=C\\CCC(=O)NCCSSC(C)(C)CNC(=O)c1cccnc1", "note": "[II-3, N-(2-((2-((4Z,7Z,10Z,13Z,16Z,19Z)-docosa-4,7,10,13,16,19-hexaenamido)ethyl)disulfanyl)-2-methylpropyl)nicotinamide]", "values": [
      {"measurement": "intracellular bacterial killing effect relative to positive control Cytochalasin-D", "setting": "[1]", "result": "comparable"},
      {"measurement": "intracellular clearance of Pseudomona aeruginosa", "setting": "[1]; 24 hours pre-treatment", "result": "effective intracellular clearance"},
      {"measurement": "cell surface CFTR compared to vehicle control", "setting": "cell surface CFTR", "result": "corresponding increase"},
      {"measurement": "IL-1β mRNA level", "setting": "IL-1β", "result": "marked reduction"},
      {"measurement": "increase in the ratio of LC3-II to LC3-I in the isolated lung tissues", "setting": "LC3-II/LC3-I", "result": 22, "unit": "%"}
    ]}
  ]
}
